This assay concerns alpha 1a receptors versus alpha 1b and alpha 1d receptors. The assay is described as follows: Selective Binding Assays: binding to alpha 1a versus alpha 1b and alpha 1d receptors ([125I]-HEAT competition binding). The arrangement: species or system human. The conditions noted are these: alpha 1a versus both alpha 1b and alpha 1d; at least about. As for the experimental part: Membranes prepared from the stably transfected human alpha 1a cell line (ATCC CRL 11140) were used to identify compounds that bind to the human alpha 1a adrenergic receptor. These competition binding reactions (total volume=200 μl) contained 50 mM Tris-HCl pH. 7.4, 5 mM EDTA, 150 mM NaCl, 100 pM [^125 I]-HEAT, membranes prepared from the alpha 1a cell line and increasing amounts of unlabeled ligand. Reactions were incubated at room temperature for one hour with shaking. Reactions were filtered onto Whatman GF/C glass fiber filters with a Inotec 96 well cell harvester. Filters were washed three times with ice cold buffer and bound radioactivity was determined (Ki).
Membranes prepared from stably transfected human alpha 1d and alpha 1b cell lines (ATCC CRL 11138 and CRL 11139, respectively) were used to identify compounds that selectively bind to the human alpha 1a adrenergic receptor. These competition binding reactions (total volume=200 μl) contained 50 mM Tris-HCl pH. 7.4, 5 mM EDTA, 150 mM NaCl, 100 pM [^125 I]-HEAT, membranes prepared from cell lines transfected with the respective alpha 1 subtype expression plasmid and increasing amounts of unlabeled ligand. Reactions were incubated at room temperature for one hour with shaking. Reactions were filtered onto Whatman GF/C glass fiber filters with a Inotec 96 well cell harvester. Filters were washed three times with ice cold buffer and bound radioactivity was determined (Ki).

Each structure is given as a SMILES string. Structures can show the parent of a compound that is named as a salt.

For the molecule `CC1CC(=O)N(C(=O)NCCCN2CCC(c3ccc(F)cc3)CC2)C(c2ccc(F)c(F)c2)C1` (single isomer, unassigned) [Example 3 (Isomer C), Hydrochloride], the “fold more selective in binding to alpha 1a receptors versus binding to the alpha 1b and alpha 1d receptors” value is given as “at least 10 fold”. Then `O=C1CCCC(c2ccc(F)c(F)c2)N1C(=O)NCCCN1CCC2(CCc3ccccc32)CC1` (single isomer, unassigned) [Example 7 (Enantiomer A), Hydrochloride], with “at least 10 fold”.

Source of the values: US6326372A, “Lactam and cyclic urea derivatives useful as alpha 1a adrenoceptor antagonists” (Merck & Co., Inc., priority 2000, dated 2001).
